In US20230159510A1, “NOVEL PRMT5 INHIBITORS” (AMGEN INC., priority 2020, published 2023):
pIC50: −log10 of the molar value. Like-named read-outs stand apart in the source and are kept apart here.

How the values were obtained:
[1] = test system: HCT116 WT cells; assay: HCT116 proliferation assay, WT cells (CellTiter-Glo, 6 days); format: cell-based; details: Homo sapiens, HCT-116, 144 h, read-out: Prolif_HCT116-WT IC50
Description: (§1) HCT116 MTAP null and WT cells were seeded in 96-well tissue culture plates in RPMI 1640 media + 10% fetal bovine serum. Plates were incubated overnight at 37° C. and 5% CO2. Cells were then treated with a 8- or 9-point serial dilution of compound, using a top concentration of 1 or 10 µM, 1:3 serial dilution steps and, a DMSO-only control. Cells were incubated in the presence of drug for 6 days. Effects on cell viability were measured with the CellTiter-Glo® Luminescent Cell Viability Assay (Promega) per manufacturer’s recommendation. Assay plates were read on an EnVision™ Multilabel Reader using the Ultra-Sensitive luminescence module.

[2] = test system: HCT116 MTAP null cells; assay: HCT116 proliferation assay, MTAP null cells (CellTiter-Glo, 6 days); format: cell-based; details: 144 h, read-out: Protif_ HCT116-MTAP null IC50
Description: as §1

SMILES | pIC50 [1] | pIC50 ([2]; HCT116-MTAP null) | pIC50 [2]
C[C@H](c1ncccn1)N(Cc1ccc(C(F)(F)F)cn1)C(=O)c1cnc2nc(N)c(I)cc2c1 [Example 838, (R)-7-amino-6-iodo-N-(1-(pyrimidin-2-yl)ethyl)-N-((5-(trifluoromethyl)pyridin-2-yl)methyl)-1,8-naphthyridine-3-carboxamide] | 5.78 | 7.25 | –
CC1COCCC1N(Cc1ccc(C(F)(F)F)cn1)C(=O)c1ccc2nc(N)c(Br)cc2c1 (centres unmarked) [Example 830, 2-amino-3-bromo-N-(3-methyltetrahydro-2H-pyran-4-yl)-N-((5-(trifluoromethyl)pyridin-2-yl)methyl)quinoline-6-carboxamide] | < 5.00 | 6.42 | –
Nc1nc2ccc(C(=O)N(Cc3ccc(C(F)(F)F)cn3)C3CCOC3C3CC3)cc2cc1Br (centres unmarked) [Example 832, 2-amino-3-bromo-N-(2-cyclopropyltetrahydrofuran-3-yl)-N-((5-(trifluoromethyl)pyridin-2-yl)methyl)quinoline-6-carboxamide] | < 5.00 | 6.42 | –
C[C@H](c1ncccn1)N(Cc1ccc(Br)nn1)C(=O)c1ccc2nc(N)c(Br)cc2c1 [Example 740, (R)-2-amino-3-bromo-N-((6-bromopyridazin-3-yl)methyl)-N-(1-(pyrimidin-2-yl)ethyl)quinoline-6-carboxamide] | 5.36 | 7.10 | –
Cc1cc2cc(C(=O)N(Cc3ccc4[nH]c(=O)[nH]c4c3)Cc3ccncc3F)ccc2nc1N [Example 588, 2-amino-N-((3-fluoropyridin-4-yl)methyl)-3-methyl-N-((2-oxo-2,3-dihydro-1H-benzo [d]imidazol-5-yl)methyl)quinoline-6-carboxamide] | < 6.00 | 6.12 | –
Cc1cc2cc(C(=O)N(Cc3ccc(N4CCC(C(N)=O)CC4)cc3)CC(C)C3CC3)ccc2nc1N (centres unmarked) [Example 571, 2-amino-N-(4-(4-carbamoylpiperidin-1-yl)benzyl)-N-(2-cyclopropylpropyl)-3-methylquinoline-6-carboxamide] | < 6.00 | 6.69 | –
C[C@H](c1ncccn1)N(Cc1ccc(OC(F)F)nn1)C(=O)c1ccc2nc(N)c(Br)cc2c1 [Example 746, (R)-2-amino-3-bromo-N-((6-(difluoromethoxy)pyridazin-3-yl)methyl)-N-(1-(pyrimidin-2-yl)ethyl)quinoline-6-carboxamide] | 5.14 | 6.86 | –
CCc1csc(CN(Cc2ccc(C(F)(F)F)cn2)C(=O)c2ccc3nc(N)c(C)cc3c2)n1 [Example 586, 2-amino-N-((4-ethylthiazol-2-yl)methyl)-3-methyl-N-((5-(trifluoromethyl)pyridin-2-yl)methyl)quinoline-6-carboxamide] | 5.26 | 6.46 | –
Cc1cc2cc(C(=O)N(Cc3ccc(C(F)(F)F)cn3)[C@H]3CCC[C@@H]3OC(F)F)ccc2nc1N (single isomer, unassigned) [Example 817] | 5.88 | 6.43 | –
Cc1cc2cc(C(=O)N(Cc3ncccc3Cl)[C@H](C)c3ncccn3)c(F)cc2nc1N (single isomer, unassigned) [Example 784] | 5.33 | 6.58 | –
Cc1cc2cc(C(=O)N(Cc3ccc(N4CCOCC4)nn3)C(C)c3ncccn3)c(F)cc2nc1N (stereo in doubt) [Example 731, 2-amino-7-fluoro-3-methyl-N-((6-(4-morpholinyl)-3-pyridazinyl)methyl)-N-((1R)-1-(2-pyrimidinyl)ethyl)-6-quinolinecarboxamide] | 6.16 | 7.30 | –
Cc1cc2cc(C(=O)N(Cc3ccc(C(F)(F)F)cn3)[C@@H](C)c3ccc(F)cn3)ccc2nc1N (single isomer, unassigned) [Example 485] | 5.33 | 6.13 | –
C[C@H](c1ncccn1)N(Cc1ccc(C(F)(F)F)nn1)C(=O)c1cnc2nc(N)c(I)cc2c1 [Example 808, (R)-7-amino-6-iodo-N-(1-(pyrimidin-2-yl)ethyl)-N-((6-(trifluoromethyl)pyridazin-3-yl)methyl)-1,8-naphthyridine-3-carboxamide] | 4.70 | 6.34 | –
Cc1cc2cc(C(=O)N(Cc3ccccc3F)C3CC(c4ccc(OC(F)(F)F)cc4)C3)ccc2nc1N (centres unmarked) [Example 587, 2-amino-N-(2-fluorobenzyl)-3-methyl-N-(3-(4-(trifluoromethoxy)phenyl)cyclobutyl)quinoline-6-carboxamide] | 6.39 | 6.09 | –
Cc1cc2cc(C(=O)N(Cc3ccc4[nH]c(=O)[nH]c4c3)Cc3ccnc4[nH]ccc34)ccc2nc1N [Example 589, N-((1H-pyrrolo[2,3-b]pyridin-4-yl)methyl)-2-amino-3-methyl-N-((2-oxo-2,3-dihydro-1H-benzo [d]imidazol-5-yl)methyl)quinoline-6-carboxamide] | < 6.00 | 6.26 | –
COC[C@@H](C1CC1)N(Cc1ccc(C(F)(F)F)cn1)C(=O)c1ccc2nc(N)c(C)cc2c1 (single isomer, unassigned) [Example 809] | 6.44 | 7.82 | –
Cc1cc2cc(C(=O)N(Cc3ccc(C#N)nn3)[C@H](C)c3ncccc3F)ccc2nc1N [Example 728, 2-amino-N-((6-cyano-3-pyridazinyl)methyl)-N-((1R)-1-(3-fluoro-2-pyridinyl)ethyl)-3-methyl-6-quinolinecarboxamide] | 5.17 | 6.58 | –
CNc1ccc(CN(C(=O)c2ccc3nc(N)c(C)cc3c2)[C@H](C)c2ncccc2F)nn1 [Example 824, 2-Amino-N-((1R)-1-(3-fluoro-2-pyridinyl)ethyl)-3-methyl-N-((6-(methylamino)-3-pyridazinyl)methyl)-6-quinolinecarboxamide] | < 5.00 | 6.22 | –
Cc1cc2cc(C(=O)N(Cc3ccc(C(F)(F)F)nn3)[C@@H]3CCCn4ccnc43)ccc2nc1N (single isomer, unassigned) [Example 813] | 5.58 | 7.01 | –
Cc1cc2cc(C(=O)N(Cc3ccc(C(F)(F)F)cn3)Cc3ncccc3F)c(Cl)cc2nc1N [Example 804, 2-amino-7-chloro-N-((3-fluoro-2-pyridinyl)methyl)-3-methyl-N-((5-(trifluoromethyl)-2-pyridinyl)methyl)-6-quinolinecarboxamide] | 5.24 | 6.65 | –
[2H]C([2H])([2H])c1cc2cc(C(=O)N(Cc3ccc(C(F)(F)F)cn3)[C@H](C)c3ncccn3)ccc2nc1N [Example 399, (R)-2-amino-3-(methyl-d3)-N-(1-(pyrimidin-2-yl)ethyl)-N-((5-(trifluoromethyl)pyridin-2-yl)methyl)quinoline-6-carboxamide] | 6.06 | – | 7.44
Cc1cc2cc(C(=O)N(Cc3ccc(C(F)(F)F)cn3)C(C)C3CCOCC3)ccc2nc1N (centres unmarked) [Example 675, 2-amino-3-methyl-N-(1-tetrahydropyran-4-ylethyl)-N-[[5-(trifluoromethyl)-2-pyridyl]methyl] quinoline-6-carboxamide] | < 6.00 | 6.63 | –
CO[C@@H]1CCOC[C@H]1N(Cc1ccc(C(F)(F)F)cn1)C(=O)c1ccc2nc(N)c(C)cc2c1 (racemic) [Example 833, 2-Amino-N-((3R,4R)-4-methoxytetrahydro-2H-pyran-3-yl)-3-methyl-N-((5-(trifluoromethyl)-2-pyridinyl)methyl)-6-quinolinecarboxamide and 2-amino-N-((3S,4S)-4-methoxytetrahydro-2H-pyran-3-yl)-3-methyl-N-((5-(trifluoromethyl)-2-pyridinyl)methyl)-6-quinolinecarboxamide] | 5.92 | 7.41 | –
COC(=O)N1CCC(c2ccc(CN(C(=O)c3ccc4nc(N)c(C)cc4c3)[C@H](C)c3ncccn3)nc2)CC1 [Example 822, methyl (R)-4-(6-((2-amino-3-methyl-N-(1-(pyrimidin-2-yl)ethyl)quinoline-6-carboxamido)methyl)pyridin-3-yl)piperidine-1-carboxylate] | 6.12 | 7.35 | –
COc1ccc(CN(C(=O)c2ccc3nc(N)c(C)cc3c2)[C@H](C)c2ncccn2)cn1 (single isomer, unassigned) [Example 786] | < 5.00 | 6.49 | –
Cc1cc2cc(C(=O)N(Cc3ccc(C(F)(F)F)cn3)C(C)c3ncon3)ccc2nc1N (centres unmarked) [Example 795, N-(1-(1,2,4-oxadiazol-3-yl)ethyl)-2-amino-3-methyl-N-((5-(trifluoromethyl)pyridin-2-yl)methyl)quinoline-6-carboxamide] | 5.86 | 7.25 | –
CO[C@@H]1CCCC[C@H]1N(Cc1ccc(C(F)(F)F)cn1)C(=O)c1cnc2nc(N)c(Br)cc2c1 (racemic) [Example 798, 7-amino-6-bromo-N-((1R,2R)-2-methoxycyclohexyl)-N-((5-(trifluoromethyl)pyridin-2-yl)methyl)-1,8-naphthyridine-3-carboxamide] | 5.16 | 6.60 | –
Cc1c(Br)c(N)nc2ncc(C(=O)N(Cc3ccc(C(F)(F)F)cn3)[C@H](C)c3ncccn3)cc12 [Example 743, (R)-7-amino-6-bromo-5-methyl-N-(1-(pyrimidin-2-yl)ethyl)-N-((5-(trifluoromethyl)pyridin-2-yl)methyl)-1,8-naphthyridine-3-carboxamide] | 6.16 | 7.27 | –
Cc1cc2cc(C(=O)N(Cc3ccc(C(F)(F)F)cn3)[C@@H]3CCOC[C@H]3F)ccc2nc1N (single isomer, unassigned) [Example 781] | 5.47 | 6.59 | –
C#CCCCN(Cc1ccc(C(F)(F)F)cn1)C(=O)c1ccc2nc(N)c(C)cc2c1 [Example 692, 2-amino-3-methyl-N-pent-4-ynyl-N-[[5-(trifluoromethyl)-2-pyridyl]methyl] quinoline-6-carboxamide] | – | < 6.00 | –
